Where two headings read alike, the source gives them in different places.
What was measured:
DYRK1A [1] = molecular target: T1, DYRK1A (Homo sapiens (Human), UniProt Q13627); test: FRET-based LanthaScreen Eu Kinase Binding Assay (Life Technologies); conditions: read-out: Screening (30 μM) LifeTech: % DYRK1A inhibition at 30 μM
Description: (§1) DYRK1A Binding Assays. Compounds were tested for DYRK1A binding activity at two different commercial kinase profiling services, Life Technologies and DiscoverX. […] Compounds were screened for DYRK1A activity at a single concentration of 30 μM in duplicates.

DYRK1A [2] = molecular target: T1, DYRK1A; test: KINOMEscan Assay (DiscoverX), DYRK1A binding; conditions: for remaining binding at 30 µM: read-out: Screening (30 μM) DiscoverX: primary screen binding interactions, % DMSO Ctrl; for Kd: eleven serial three fold dilutions (in duplicate)
Description: as §1

inhibition at 30 µM (DYRK1A [1]; 30 μM single concentration) [%] | Molecule | remaining binding at 30 µM (DYRK1A [2]) [%] | inhibition at 30 µM (DYRK1A [1]) [%] | Kd (DYRK1A [2]) [nM]
63 | CNC1=NN=C(c2ccc3[nH]c(=O)[nH]c3c2)CS1 [Compound 3-2, N-methyl-5-(benzo[d]imidazol-2(3H)-one)-6H-1,3,4-thiadiazin-2-amine] | 0.5 |  | 
69 | CCNC1=NN=C(c2ccc3[nH]c(=O)[nH]c3c2)CS1 [Compound 3-3, N-ethyl-5-(benzo[d]imidazol-2(3H)-one)-6H-1,3,4-thiadiazin-2-amine] | 0 |  | 
48 | CCCNC1=NN=C(c2ccc3[nH]c(=O)[nH]c3c2)CS1 [Compound 3-4, N-propyl-5-(benzo[d]imidazol-2(3H)-one)-6H-1,3,4-thiadiazin-2-amine] | 2.9 |  | 
24 | CCCCNC1=NN=C(c2ccc3[nH]c(=O)[nH]c3c2)CS1 [Compound 3-5, N-butyl-5-(benzo[d]imidazol-2(3H)-one)-6H-1,3,4-thiadiazin-2-amine] | 0 |  | 
59 | CC(C)NC1=NN=C(c2ccc3[nH]c(=O)[nH]c3c2)CS1 [Compound 3-6, N-isopropyl-5-(benzo[d]imidazol-2(3H)-one)-6H-1,3,4-thiadiazin-2-amine] | 2.3 |  | 
46 | CC(C)(C)NC1=NN=C(c2ccc3[nH]c(=O)[nH]c3c2)CS1 [Compound 3-7, N-t-butyl-5-(benzo[d]imidazol-2(3H)-one)-6H-1,3,4-thiadiazin-2-amine] | 0.75 |  | 
 | O=c1[nH]c2ccc(C3=NN=C(NCc4ccc(Cl)cc4)SC3)cc2[nH]1 [Compound 3-12, N-(4-chlorobenzyl)-5-(benzo[d]imidazol-2(3H)-one)-6H-1,3,4-thiadiazin-2-amine] | 19 | 93 | 185
 | O=c1[nH]c2ccc(C3=NN=C(NCc4cccc(Cl)c4)SC3)cc2[nH]1 [Compound 3-13, N-(3-chlorobenzyl)-5-(benzo[d]imidazol-2(3H)-one)-6H-1,3,4-thiadiazin-2-amine] |  |  | 420
 | O=c1[nH]c2ccc(C3=NN=C(NCc4ccccc4Cl)SC3)cc2[nH]1 [Compound 3-14, N-(2-chlorobenzyl)-5-(benzo[d]imidazol-2(3H)-one)-6H-1,3,4-thiadiazin-2-amine] |  |  | 840
 | O=c1[nH]c2ccc(C3=NN=C(NCc4ccc(F)cc4)SC3)cc2[nH]1 [Compound 3-15, N-(4-fluorobenzyl)-5-(benzo[d]imidazol-2(3H)-one)-6H-1,3,4-thiadiazin-2-amine] | 8.9 | 95 | 
 | O=c1[nH]c2ccc(C3=NN=C(NCc4cccc(F)c4)SC3)cc2[nH]1 [Compound 3-16, N-(3-fluorobenzyl)-5-(benzo[d]imidazol-2(3H)-one)-6H-1,3,4-thiadiazin-2-amine] |  |  | 900
 | O=c1[nH]c2ccc(C3=NN=C(NCc4ccc(C(F)(F)F)cc4)SC3)cc2[nH]1 [Compound 3-18, N-(4-trifluoromethylbenzyl)-5-(benzo[d]imidazol-2(3H)-one)-6H-1,3,4-thiadiazin-2-amine] | 40 | 53 | 
 | O=c1[nH]c2ccc(C3=NN=C(NCc4cccc(C(F)(F)F)c4)SC3)cc2[nH]1 [Compound 3-19, N-(3-trifluoromethylbenzyl)-5-(benzo[d]imidazol-2(3H)-one)-6H-1,3,4-thiadiazin-2-amine] | 23 | 20 | 
 | O=c1[nH]c2ccc(C3=NN=C(NCc4ccccc4C(F)(F)F)SC3)cc2[nH]1 [Compound 3-20, N-(2-trifluoromethylbenzyl)-5-(benzo[d]imidazol-2(3H)-one)-6H-1,3,4-thiadiazin-2-amine] | 38 | 24 | 7700
 | N#Cc1ccc(CNC2=NN=C(c3ccc4[nH]c(=O)[nH]c4c3)CS2)cc1 [Compound 3-21, N-(4-cyanobenzyl)-5-(benzo[d]imidazol-2(3H)-one)-6H-1,3,4-thiadiazin-2-amine] | 12 | 47 | 
 | N#Cc1cccc(CNC2=NN=C(c3ccc4[nH]c(=O)[nH]c4c3)CS2)c1 [Compound 3-22, N-(3-cyanobenzyl)-5-(benzo[d]imidazol-2(3H)-one)-6H-1,3,4-thiadiazin-2-amine] | 12 | 69 | 
 | O=c1[nH]c2ccc(C3=NN=C(NCc4cccnc4)SC3)cc2[nH]1 [Compound 3-23, N-(pyridine-3yl)methyl-5-(benzo[d]imidazol-2(3H)-one)-6H-1,3,4-thiadiazin-2-amine] | 4.2 | 74 | 860
 | O=c1[nH]c2ccc(C3=NN=C(NCc4ccncc4)SC3)cc2[nH]1 [Compound 3-24, N-(pyridine-4yl)methyl-5-(benzo[d]imidazol-2(3H)-one)-6H-1,3,4-thiadiazin-2-amine] |  |  | 2200
 | CC(NC1=NN=C(c2ccc3[nH]c(=O)[nH]c3c2)CS1)c1ccccc1 (centres unmarked) [Compound 3-25, N-(1-phenylethyl)-5-(benzo[d]imidazol-2(3H)-one)-6H-1,3,4-thiadiazin-2-amine] | 3.7 | 57 | 
 | CC(NC1=NN=C(c2ccc3[nH]c(=O)[nH]c3c2)CS1)c1ccc(F)cc1 (centres unmarked) [Compound 3-26, N-(1-(4-fluorophenyl)ethyl)-5-(benzo[d]imidazol-2(3H)-one)-6H-1,3,4-thiadiazin-2-amine] |  |  | 2300
 | O=c1[nH]c2ccc(C3=NN=C(Nc4ccccc4)SC3)cc2[nH]1 [Compound 3-28, N-phenyl-5-(benzo[d]imidazol-2(3H)-one)-6H-1,3,4-thiadiazin-2-amine] | 41 | 39 | 19000
 | O=c1[nH]c2ccc(C3=NN=C(Nc4cccc(F)c4)SC3)cc2[nH]1 [Compound 3-29, N-(3-fluorophenyl)-5-(benzo[d]imidazol-2(3H)-one)-6H-1,3,4-thiadiazin-2-amine] |  |  | 7000
 | O=c1[nH]c2ccc(C3=NN=C(Nc4cccc(C(F)(F)F)c4)SC3)cc2[nH]1 [Compound 3-30, N-(3-trifluoromethylphenyl)-5-(benzo[d]imidazol-2(3H)-one)-6H-1,3,4-thiadiazin-2-amine] |  |  | 14000
 | N#Cc1cccc(NC2=NN=C(c3ccc4[nH]c(=O)[nH]c4c3)CS2)c1 [Compound 3-31, N-(3-cyanophenyl)-5-(benzo[d]imidazol-2(3H)-one)-6H-1,3,4-thiadiazin-2-amine] |  |  | 3800
 | O=c1[nH]c2ccc(C3=NN=C(NCCc4ccccc4)SC3)cc2[nH]1 [Compound 3-34, N-(2-phenylethyl)-5-(benzo[d]imidazol-2(3H)-one)-6H-1,3,4-thiadiazin-2-amine] | 0.5 | 61 | 1600
 | O=c1[nH]c2ccc(C3=NN=C(NCCc4ccccn4)SC3)cc2[nH]1 [Compound 3-38, N-(2-(pyridine-1-yl)ethyl)-5-(benzo[d]imidazol-2(3H)-one)-6H-1,3,4-thiadiazin-2-amine] | 8.4 | 87 | 1600
 | O=c1[nH]c2ccc(C3=NN=C(NCCc4cccnc4)SC3)cc2[nH]1 [Compound 3-39, N-(2-(pyridine-3-yl)ethyl)-5-(benzo[d]imidazol-2(3H)-one)-6H-1,3,4-thiadiazin-2-amine] |  |  | 2200
 | O=c1[nH]c2ccc(C3=NN=C(NCc4cccc5ccccc45)SC3)cc2[nH]1 [Compound 3-41, N-(1-naphthylmethyl)-5-(benzo[d]imidazol-2(3H)-one)-6H-1,3,4-thiadiazin-2-amine] | 36 | 11 | 7300
 | NC(=O)c1cccc(CNC2=NN=C(c3ccc4[nH]c(=O)[nH]c4c3)CS2)c1 [Compound 4-2, N-(3-carboxyaminobenzyl)-5-(benzo[d]imidazol-2(3H)-one)-6H-1,3,4-thiadiazin-2-amine] |  |  | 440
 | N-(3-phenylpropyl)-5-(benzo[d]imidazol-2(3H)-one)-6H-1,3,4-thiadiazin-2-amine [Compound 3-37] |  |  | 950
